The assay addresses T1, PLK1 (Homo sapiens, UniProt P53350).
T1 construct: Full-length, active GST-PLK1 is purified from Sf9 insect cells; made in house; host or cells: Sf9 insect cells
In words: Biochemical Characterization Assay: HTRF kinase assay, GST-PLK1 phosphorylation of GST-p53. To be noted: GST-PLK1, GST-p53 substrate. In a few lines: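 HTRF read-out of p53 phosphorylation: after EDTA stop, anti-phospho-p53 antibody bound 30 min at 37 °C in HEPES pH 7 buffer, with Eu-anti-rabbit/APC-anti-GST detection. Kinase step used full-length Sf9-expressed GST-PLK1 (3 ug/mL) and E. coli GST-p53 substrate, 35 min at 37 °C.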
Background: In TR-FRET formats the signal depends on donor and acceptor labels being close together.

T1 sequence (P53350 whole entry): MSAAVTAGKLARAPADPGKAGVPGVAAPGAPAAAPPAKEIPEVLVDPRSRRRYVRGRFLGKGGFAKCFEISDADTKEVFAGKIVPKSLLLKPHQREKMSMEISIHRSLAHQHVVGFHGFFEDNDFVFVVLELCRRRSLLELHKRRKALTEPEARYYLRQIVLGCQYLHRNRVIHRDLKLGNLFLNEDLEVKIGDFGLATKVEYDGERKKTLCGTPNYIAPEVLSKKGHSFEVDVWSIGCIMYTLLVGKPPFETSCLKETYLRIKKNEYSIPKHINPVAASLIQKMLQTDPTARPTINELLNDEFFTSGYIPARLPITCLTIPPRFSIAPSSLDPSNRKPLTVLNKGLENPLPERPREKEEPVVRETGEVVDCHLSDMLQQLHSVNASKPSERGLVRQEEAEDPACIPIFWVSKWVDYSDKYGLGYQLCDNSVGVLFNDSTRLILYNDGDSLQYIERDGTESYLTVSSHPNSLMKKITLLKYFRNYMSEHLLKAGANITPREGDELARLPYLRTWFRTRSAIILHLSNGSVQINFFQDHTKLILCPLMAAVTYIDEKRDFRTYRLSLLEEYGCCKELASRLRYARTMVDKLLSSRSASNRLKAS

The compound `COc1cc(C(=O)NCCc2c[nH]c3ccccc23)ccc1Nc1ncc2c(n1)N(C1CCCC1)CC(F)(F)C(=O)N2C` [Example I-51, 4-(9-cyclopentyl-7,7-difluoro-5-methyl-6-oxo-6,7,8,9-tetrahydro-5H-pyrimido[4,5-b][1,4]diazepin-2-ylamino)-N-[2-(1H-indol-3-yl)-ethyl]-3-methoxy-benzamide] registered an IC50 (ATP) of 51 to 500 nM.
Compound `O=C(NC1CCOCC1)c1ccc(Nc2ncc3c(n2)N(C2CCCC2)CC(F)(F)C(=O)N3)cc1` [Example I-136, 4-(9-cyclopentyl-7,7-difluoro-6-oxo-6,7,8,9-tetrahydro-5H-pyrimido[4,5-b][1,4]diazepin-2-ylamino)-N-(tetrahydro-pyran-4-yl)-benzamide] gave an IC50 (ATP) of 500 to 5000 nM.
For the compound `COc1cc(C(=O)NCCCN2CCNCC2)ccc1Nc1ncc2c(n1)N(C1CCCC1)CC(F)(F)C(=O)N2C` [Example I-95, 4-(9-cyclopentyl-7,7-difluoro-5-methyl-6-oxo-6,7,8,9-tetrahydro-5H-pyrimido[4,5-b][1,4]diazepin-2-ylamino)-3-methoxy-N-(3-piperazin-1-yl-propyl)-benzamide], the IC50 (ATP) was in the range of 1 to 50 nM.
In the case of `CNC(=O)c1ccc(Nc2ncc3c(n2)N(C2CCCC2)CC(F)(F)C(=O)N3C)c(C)c1` [Example I-190, 4-(9-cyclopentyl-7,7-difluoro-5-methyl-6-oxo-6,7,8,9-tetrahydro-5H-pyrimido[4,5-b][1,4]diazepin-2-ylamino)-3,N-dimethyl-benzamide], the IC50 was in the range of 1 to 50 nM.
Regarding `COc1cc(C(=O)NCCCNC(C)C)ccc1Nc1ncc2c(n1)N(C1CCCC1)CC(F)(F)C(=O)N2C` [Example I-46, 4-(9-cyclopentyl-7,7-difluoro-5-methyl-6-oxo-6,7,8,9-tetrahydro-5H-pyrimido[4,5-b][1,4]diazepin-2-ylamino)-N-(3-isopropylamino-propyl)-3-methoxy-benzamide], the IC50 (ATP) was in the range of 1 to 50 nM.
For the setting “ATP”, `COc1cc(C(=O)N[C@H]2CCN(Cc3ccccc3)C2)ccc1Nc1ncc2c(n1)N(C1CCCC1)CC(F)(F)C(=O)N2C` [Example I-100, N—((S)-1-benzyl-pyrrolidin-3-yl)-4-(9-cyclopentyl-7,7-difluoro-5-methyl-6-oxo-6,7,8,9-tetrahydro-5H-pyrimido[4,5-b][1,4]diazepin-2-ylamino)-3-methoxy-benzamide] showed an IC50 of 1 to 50 nM.
The compound `COc1cc(C(=O)N2CCCCC2)ccc1Nc1ncc2c(n1)N(C1CCCC1)CC(F)(F)C(=O)N2C` [Example I-126, 9-cyclopentyl-7,7-difluoro-2-[2-methoxy-4-(piperidine-1-carbonyl)-phenylamino]-5-methyl-5,7,8,9-tetrahydro-pyrimido[4,5-b][1,4]diazepin-6-one] had an IC50 (ATP) of 51 to 500 nM.
Regarding `COc1cc(C(=O)NC2CC(C)(C)NC(C)(C)C2)ccc1Nc1ncc2c(n1)N(C1CCCC1)CC(F)(F)C(=O)N2C` [Example I-65, 4-(9-cyclopentyl-7,7-difluoro-5-methyl-6-oxo-6,7,8,9-tetrahydro-5H-pyrimido[4,5-b][1,4]diazepin-2-ylamino)-3-methoxy-N-(2,2,6,6-tetramethyl-piperidin-4-yl)-benzamide], the IC50 (ATP) is 1 to 50 nM.
In turn, `COc1cc(C(=O)NCCCN(C)C)ccc1Nc1ncc2c(n1)N(C1CCCCC1)CC(F)(F)C(=O)N2C` [Example I-254, 4-(9-cyclohexyl-7,7-difluoro-5-methyl-6-oxo-6,7,8,9-tetrahydro-5H-pyrimido[4,5-b][1,4]diazepin-2-ylamino)-N-(3-dimethylamino-propyl)-3-methoxy-benzamide] came in with an IC50 of 1 to 50 nM.
The same measure, in the same setting: the same measure for `CCN1CCC(NC(=O)c2ccc(Nc3ncc4c(n3)N(C3CCCC3)CC(F)(F)C(=O)N4C)c(C)c2)CC1` [Example I-186, 4-(9-cyclopentyl-7,7-difluoro-5-methyl-6-oxo-6,7,8,9-tetrahydro-5H-pyrimido[4,5-b][1,4]diazepin-2-ylamino)-N-(1-ethyl-piperidin-4-yl)-3-methyl-benzamide]: 1 to 50 nM.

A word on the IC50: it is the point on the concentration scale where inhibition reaches its midpoint. Read a high IC50 as weaker potency.

The values above are taken from patent US8003785B2 (Takeda Pharmaceutical Company Limited, priority 2008, dated 2011).
